Assay results taken from PubChem BioAssay (NCI).
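Abbreviation: GI50, concentration required for 50% inhibition of growth. Definition used: TGI = concentration required for complete inhibition of growth.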

Tests used:
Experiment in all cases: NCI tumour cell line growth inhibition, 384-well format
[1] = tested on: HS 578T breast
[2] = tested on: RXF 393 renal
[3] = tested on: OVCAR-3 ovarian
[4] = tested on: COLO 205 colon
[5] = tested on: TK-10 renal
[6] = tested on: ACHN renal
[7] = tested on: MDA-MB-435 melanoma
[8] = tested on: NCI-H460 NSCLC
[9] = tested on: HT29 colon
[10] = tested on: SF-539 CNS
[11] = tested on: DU-145 prostate
[12] = tested on: SF-295 CNS
[13] = tested on: MDA-MB-468 breast

Molecule CC(C)N(CCCNC(=O)Nc1ccc(C(C)(C)C)cc1)C[C@H]1O[C@@H](n2ccc3c(N)ncnc32)[C@H](O)[C@@H]1O has a GI50 [1] of over 100 µM, a TGI [1] of over 100 µM and a GI50 [2] of over 100 µM. For the same molecule, the TGI [2] was over 100 µM, the GI50 [3] was over 100 µM and the TGI [3] was over 100 µM. It also gave a GI50 [4] of over 100 µM, a TGI [4] of over 100 µM and a GI50 [5] of over 100 µM. The TGI [5] was over 100 µM, the GI50 [6] was over 100 µM and the TGI [6] was over 100 µM. For the same molecule, the GI50 [7] was over 100 µM, the TGI [7] was over 100 µM and the GI50 [8] was over 100 µM. It also gave a TGI [8] of over 100 µM, a GI50 [9] of over 87.2 µM and a TGI [9] of over 100 µM. For the same molecule, the GI50 [10] was over 100 µM, the TGI [10] was over 100 µM and the GI50 [11] was over 100 µM. The TGI [11] was over 100 µM, the GI50 [12] was over 100 µM and the TGI [12] was over 100 µM. The GI50 [13] was 23.1 µM and the TGI [13] was over 100 µM.
In the case of [2H]c1nc(C)nc([2H])c1-c1cc(NC[C@@H](C)c2cccc3c(C(=O)NC)ccnc23)ncn1, the GI50 [1] is reported as over 100 µM, the TGI [1] is reported as over 100 µM and the GI50 [2] is reported as over 100 µM. The TGI [2] was over 100 µM, the GI50 [3] was over 100 µM and the TGI [3] was over 100 µM. The GI50 [4] was over 100 µM, the TGI [4] was over 100 µM and the GI50 [5] was over 100 µM. It also gave a TGI [5] of over 100 µM, a GI50 [6] of over 100 µM and a TGI [6] of over 100 µM. The GI50 [7] was over 72.5 µM, the TGI [7] was over 100 µM and the GI50 [8] was over 100 µM. The TGI [8] was over 100 µM, the GI50 [9] was over 100 µM and the TGI [9] was over 100 µM. For the same molecule, the GI50 [10] was over 100 µM, the TGI [10] was over 100 µM and the GI50 [11] was over 100 µM. It also gave a TGI [11] of over 100 µM, a GI50 [12] of over 100 µM and a TGI [12] of over 100 µM. It also gave a GI50 [13] of over 100 µM and a TGI [13] of over 100 µM.
